Common to all, as to assay: MTSEA thiol modification rate (SCAM) from ACh-evoked currents in oocytes
What all share (assay type): cell-based, chick

Assay [1] concerns the target α7 AChR E^44C mutant (C^115A/L^247T background) (Gallus gallus, UniProt P22770, C138A/E67C/L270T). As for the experimental part:
(§1) ACh-evoked current amplitudes decreased following brief, repeated exposure to a limiting concentration of MTSEA (5 μM, 15 seconds). To ensure that the modification reactions were complete, all rate measurements included a final prolonged application of ~100-fold higher concentrations of MTSEA (Fig. 3A and 3B, right). Currents measured following this application represent the endpoint of the reaction between MTSEA and receptors. When the same protocol included Ba^2+ pretreatment and co-application with MTSEA (see Methods), the decreases in current amplitudes were slowed but the same endpoint was obtained (Fig. 3B). Normalized current amplitudes were plotted as a function of the cumulative time of exposure to MTSEA, and pseudo first-order rates were extracted from the single-exponential fits (Fig. 3C).
(§2) Figure 3 Barium slows the rate of MTSEA modification at M^37C. Example of experimental paradigm used to assess Ba^2+ effects on modification rates. […] Endpoints of MTSEA modification are determined by prolonged application of 500 μM MTSEA (right). (B) The same protocol, including Ba^2+ pretreatment and co-application with MTSEA. Current traces are truncated in both (A) and (B) between consecutive MTSEA applications; in all cases the currents were allowed to return to baseline prior to the next application of MTSEA ± ACh. (C) Peak current amplitudes from (A) and (B) are normalized and plotted versus total MTSEA exposure time. Data from this single experiment (no error bars) are fitted to a single-exponential decay (solid line) to extract an apparent pseudo first-order rate constant. The pseudo first-order rate constants calculated in this experiment were 0.011 s^-1 and 0.0019 s^-1 for control (A) and +Ba^2+ (B) measurements, respectively. Second-order rate constants are calculated from these values (Figures 4–6; Table 2).
(§3) Oocytes were superfused in normal extracellular solution containing a reduced Ca^2+ concentration (ESLC; 96 mM NaCl, 2 mM KCl, 1 mM MgCl2, 0.1 mM CaCl2, and 10 mM HEPES, pH 7.5). This solution minimized Ca^2+ influx and eliminated Ca^2+-activated chloride currents. Two-electrode voltage clamp was performed with a GeneClamp 500B controlled by pCLAMP8 software (Molecular Devices, Sunnyvale, CA). Electrodes were filled with 3 M KCl contacting Ag-AgCl wires and had resistances of 0.5 to 2.0 MΩ. Currents were recorded at a constant holding potential of -60 mV. Currents were low pass filtered at 50 Hz and sampled at 100 Hz. Agonist dose-response curves were obtained as described previously, and data were fit to the Hill equation using Origin software (Microcal Software, Northampton, MA).
(§4) MTSEA was prepared daily in distilled water and stored on ice. Stock solution was diluted to the appropriate working concentration in ESLC immediately before each application. […] The limiting dose, yielding 20–40% of the maximal MTSEA effect, was identified for each mutant. […] To measure the effect of Ba^2+ on modification rates we pre-applied 10 mM Ba^2+ for 30 seconds prior to co-application of 10 mM Ba^2+ plus MTSEA. This concentration of Ba^2+ is equivalent to an approximate […] for the modulatory effects in both parental and mutant AChRs. Kinetic data were analyzed as described previously; rate data were fit to a single exponential to extract a pseudo-first order rate constant; this was divided by the MTSEA concentration used to determine the second order rate constant for thiol modification.

Assay [2] deals with α7 AChR N^170C mutant (C^115A/L^247T background) (Gallus gallus, UniProt P22770, C138A/L270T/N193C). The settings on record: ± standard error. How it is done: as §1, §2, §3, §4
The target in assay [3] is α7 AChR N^52C mutant (C^115A/L^247T background) (Gallus gallus, UniProt P22770, C138A/L270T/N75C). The settings on record: ± standard error. As for the experimental part:
as §1, §2, §3, §4

The target in assay [4] is α7 AChR M^37C mutant (C^115A/L^247T background) (Gallus gallus, UniProt P22770, C138A/L270T/M60C). The settings on record: for pseudo first-order rate constant of MTSEA modification: 5 μM MTSEA, single experiment. How it is done: as §1, §2, §3, §4
Assay [5] concerns the target T1, α7 AChR M^40C mutant (C^115A/L^247T background) (Gallus gallus, UniProt P22770, C138A/L270T/M63C).
T1 construct: expressed in transfected cells; host or cells: Xenopus laevis oocytes injected with cRNA
As to conditions: ± standard error. As for the experimental part:
as §1, §2, §3, §4

Assay [6] concerns the target α7 AChR M^40C/E^172Q mutant (C^115A/L^247T background) (Gallus gallus, UniProt P22770, C138A/E195Q/L270T/M63C). As to conditions: ± standard error. As for the experimental part: as §1, §2, §3, §4
The target in assay [7] is α7 AChR E^172C mutant (C^115A/L^247T background) (Gallus gallus, UniProt P22770, C138A/E195C/L270T). The settings on record: ± standard error. As for the experimental part:
as §1, §2, §3, §4

Where [8] appears, read: MTSEA + 10 mM Ba^2+ (30 s pre-application), ± standard error.
The mark [9] stands for this setting: MTSEA + ~EC110 ACh, ± standard error.
Where [10] appears, read: co-expression with human RIC-3, MTSEA + 10 mM Ba^2+ (30 s pre-application).
[11] abbreviates: co-expression with human RIC-3, MTSEA + ~EC110 ACh.
Where [12] appears, read: co-expression with human RIC-3, MTSEA alone.
[13] abbreviates: MTSEA + 10 mM Ba^2+ (30 s pre-application).

With `CS(=O)(=O)SCCN` [MTSEA, 2-aminoethylmethane thiosulfonate], the “MTSEA modification rate (second-order rate constant), + Ba^2+” value in assay [1] (setting [8]) is 9.3 ± 0.1(8) × 10^3, M^-1 S^-1; in assay [2] (setting [10]), 3.7 ± 0.06 (9) × 10^3, M^-1 S^-1; in assay [3] (setting [13]), 0.26 ± 0.02 (7) × 10^3, M^-1 S^-1; in assay [4] (setting [8]), 0.40 ± 0.02 (5) × 10^3, M^-1 S^-1; in assay [5] (setting [13]), 2.8 ± 0.05 (7) × 10^3, M^-1 S^-1; in assay [6] (setting [10]), 2.0 ± 0.3 (6) × 10^3, M^-1 S^-1. The “MTSEA modification rate (second-order rate constant), + Ba^2+” value in assay [7] (setting [10]) is given as 7.3 ± 0.3 (6) × 10^3, M^-1 S^-1. Moreover, the “MTSEA modification rate (second-order rate constant), + ACh” value in assay [1] (setting [9]) is recorded as 0.90 ± 0.05 (4) × 10^3, M^-1 S^-1; in assay [2] (setting [11]), 5.7 ± 0.1 (7) × 10^3, M^-1 S^-1; in assay [3] (MTSEA + ~EC110 ACh) it was 1.4 ± 0.04 (7) × 10^3, M^-1 S^-1; in assay [4] (setting [9]), 0.30 ± 0.05 (4) × 10^3, M^-1 S^-1; in assay [5] (MTSEA + ~EC110 ACh), 2.2 ± 0.4 (3) × 10^3, M^-1 S^-1; in assay [6] (setting [11]), 1.3 ± 0.1 (5) × 10^3, M^-1 S^-1. Also, the “MTSEA modification rate (second-order rate constant), + ACh” value in assay [7] (setting [11]) is 3.5 ± 0.1 (5) × 10^3, M^-1 S^-1. In addition, the “MTSEA modification rate (second-order rate constant), control” value in assay [1] (MTSEA alone, ± standard error) was 23 ± 0.7 (4) × 10^3, M^-1 S^-1; in assay [2] (setting [12]), 3.3 ± .05 (7) × 10^3, M^-1 S^-1; in assay [3] (MTSEA alone), 0.40 ± .08 (9) × 10^3, M^-1 S^-1; in assay [4] (MTSEA alone, ± standard error) it was 2.4 ± .03 (10) × 10^3, M^-1 S^-1; in assay [5] (MTSEA alone), 16 ± 0.2 (13) × 10^3, M^-1 S^-1; in assay [6] (setting [12]), 14 ± 0.5 (5) × 10^3, M^-1 S^-1. Further, the “MTSEA modification rate (second-order rate constant), control” value in assay [7] (setting [12]) was 15 ± 0.4 (5) × 10^3, M^-1 S^-1. Further, the “MTSEA modification rate in the presence of Ba^2+ compared to that in the presence of ACh” value in assay [1] (higher with Ba^2+) is listed as ~ 10 fold. Also, the “pseudo first-order rate constant of MTSEA modification” value in assay [4] (+Ba^2+) came to 0.0019 s⁻¹; in assay [4] (control) it was 0.011 s⁻¹.

The values are drawn from paper PMC2632993, “Conformational changes in α7 acetylcholine receptors underlying allosteric modulation by divalent cations” (BMC Pharmacology, 2009).
